Experimental data taken from ChEMBL document CHEMBL1147359, “Antitumor agents, 138. Rotenoids and isoflavones as cytotoxic constitutents from Amorpha fruticosa” (1993).
≈ marks a conversion by molar mass, not a printed value. Calls of active or inactive are those of the source. The rule behind the calls is not given here.

What was measured:
A549 [1] = experiment: Cytotoxicity against human A549 cells at 10 ug/ml; format: functional, cell-based
TE-671 [2] = experiment: Cytotoxicity against human TE671 cells; format: functional; conditions: read-out: ED50 (the source's name)
HCT-8 [3] = experiment: Cytotoxicity against human HCT8 cells; format: functional; conditions: read-out: ED50 (the source's name)
P388 [4] = experiment: Cytotoxicity against mouse P388 cells; format: functional; conditions: read-out: ED50 (the source's name)
KB [5] = experiment: Cytotoxicity against human KB cells; format: functional; conditions: read-out: ED50 (the source's name)
RPMI-7951 [6] = experiment: Cytotoxicity against human RPMI7951 cells; format: functional; conditions: read-out: ED50 (the source's name)
TE-671 [7] = experiment: Cytotoxicity against human TE671 cells at 10 ug/ml; format: functional, cell-based
A549 [8] = experiment: Cytotoxicity against human A549 cells; format: functional; conditions: read-out: ED50 (the source's name)
P388 [9] = experiment: Cytotoxicity against mouse P388 cells at 10 ug/ml; format: functional, cell-based
KB [10] = experiment: Cytotoxicity against human KB cells at 10 ug/ml; format: functional, cell-based
RPMI-7951 [11] = experiment: Cytotoxicity against human RPMI7951 cells at 10 ug/ml; format: functional, cell-based
HCT-8 [12] = experiment: Cytotoxicity against human HCT8 cells at 10 ug/ml; format: functional, cell-based

Compound	ED50 (A549 [1])	EC50 (TE-671 [2]) [µg/mL]	EC50 (HCT-8 [3]) [µg/mL]	EC50 (P388 [4]) [µg/mL]	EC50 (KB [5]) [µg/mL]	EC50 (RPMI-7951 [6]) [µg/mL]	ED50 (TE-671 [7])	EC50 (A549 [8]) [µg/mL]	ED50 (P388 [9])	ED50 (KB [10])	ED50 (RPMI-7951 [11])	ED50 (HCT-8 [12])
COc1cc2c(cc1OC)[C@@H]1C(=O)c3ccc4c(c3O[C@@H]1CO2)C[C@H](C(C)(C)O[C@@H]1O[C@H](CO)[C@@H](O)[C@H](O)[C@H]1O)O4	inactive	2.95 (≈ 5.13 µM)	7.43 (≈ 12.9 µM)	6.68 (≈ 11.6 µM)	6.32 (≈ 11 µM)	4.44 (≈ 7.73 µM)	–	–	–	–	–	–
COc1ccc2c(=O)c(-c3cc(OC)c(OC)cc3OC)coc2c1	inactive	–	4.63 (≈ 13.5 µM)	0.53 (≈ 1.55 µM)	0.55 (≈ 1.61 µM)	0.49 (≈ 1.43 µM)	inactive	–	–	–	–	–
COc1cc2c(cc1OC)[C@]1(O)C(=O)c3ccc4c(c3O[C@@H]1CO2)C[C@H](C(C)(C)O)O4	–	0.12 (≈ 0.28 µM)	0.56 (≈ 1.31 µM)	0.59 (≈ 1.38 µM)	3.67 (≈ 8.57 µM)	0.73 (≈ 1.7 µM)	–	9.28 (≈ 21.7 µM)	–	–	–	–
COc1ccc(-c2coc3c(OC)c(O)ccc3c2=O)cc1	inactive	–	–	–	–	–	inactive	–	inactive	inactive	inactive	inactive
COc1ccc(-c2coc3cc(O)c(OC)cc3c2=O)cc1	inactive	–	–	–	–	–	inactive	–	inactive	inactive	inactive	inactive
C=C(CO)[C@H]1Cc2c(ccc3c2O[C@@H]2COc4cc(OC)c(OC)cc4[C@@H]2C3=O)O1 [AMORPHIGENIN]	–	< 0.01	0.03 (≈ 0.0731 µM)	0.04 (≈ 0.0975 µM)	0.04 (≈ 0.0975 µM)	0.05 (≈ 0.122 µM)	–	0.05 (≈ 0.122 µM)	–	–	–	–
COC1=CC(=O)[C@]2(C=C1OC)OC[C@H]1Oc3c(ccc4c3C=CC(C)(C)O4)C(=O)[C@H]12 [AMORPHISPIRONONE]	inactive	–	–	–	0.58 (≈ 1.41 µM)	0.61 (≈ 1.49 µM)	inactive	–	inactive	–	–	inactive
C=C(CO)[C@H]1Cc2c(ccc3c2O[C@@H]2COc4cc(OC)c(OC)cc4[C@]2(O)C3=O)O1 [DABINOL]	–	< 0.001	< 0.001	< 0.001	< 0.001	< 0.001	–	< 0.001	–	–	–	–
COc1cc2c(cc1OC)[C@@H]1C(=O)c3ccc4c(c3O[C@@H]1CO2)C[C@H](C(C)(C)O)O4 [DALPANOL]	–	0.49 (≈ 1.19 µM)	0.48 (≈ 1.16 µM)	–	0.89 (≈ 2.16 µM)	4.83 (≈ 11.7 µM)	–	0.86 (≈ 2.09 µM)	inactive	–	–	–
COc1cc2c(cc1OC)[C@]1(O)C(=O)c3ccc4c(c3O[C@@H]1CO2)C=CC(C)(C)O4 [TEPHROSIN]	–	0.05 (≈ 0.122 µM)	0.09 (≈ 0.219 µM)	0.06 (≈ 0.146 µM)	0.36 (≈ 0.877 µM)	0.07 (≈ 0.171 µM)	–	< 0.001	–	–	–	–
